# Data reported in patent US20220402950A1, “SUBSTITUTED BENZIMIDAZOLES AS PAD4 INHIBITORS” (BRISTOL-MYERS SQUIBB COMPANY, priority 2018, published 2022).
# Biological target: human PAD4 (hPAD4) (Homo sapiens, UniProt Q9UM07)
# Assay: RFMS Human PAD4 Functional Assay
# Type: biochemical
# Conditions: hPAD4 RFMS IC50, human PAD4, rapid-fire mass spectrum (RFMS) assay; 5 nM hPAD4, 250 μM BAEE
# Method in brief: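 RapidFire ESI-MS quantification, normalised to a modified-citrulline internal standard, after phenyl glyoxal (final 4 mM) derivatisation of the TCA-quenched reaction. The enzyme (10 nM) sat 30 min with compound (up to 50 μM final) before 500 μM BAEE (as added) started a 90 min, 37 °C reaction. Buffer: HEPES pH 7.5, 50 μM calcium, 5 μM TPEN.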
# Sequence of human PAD4 (hPAD4) (Q9UM07 whole entry): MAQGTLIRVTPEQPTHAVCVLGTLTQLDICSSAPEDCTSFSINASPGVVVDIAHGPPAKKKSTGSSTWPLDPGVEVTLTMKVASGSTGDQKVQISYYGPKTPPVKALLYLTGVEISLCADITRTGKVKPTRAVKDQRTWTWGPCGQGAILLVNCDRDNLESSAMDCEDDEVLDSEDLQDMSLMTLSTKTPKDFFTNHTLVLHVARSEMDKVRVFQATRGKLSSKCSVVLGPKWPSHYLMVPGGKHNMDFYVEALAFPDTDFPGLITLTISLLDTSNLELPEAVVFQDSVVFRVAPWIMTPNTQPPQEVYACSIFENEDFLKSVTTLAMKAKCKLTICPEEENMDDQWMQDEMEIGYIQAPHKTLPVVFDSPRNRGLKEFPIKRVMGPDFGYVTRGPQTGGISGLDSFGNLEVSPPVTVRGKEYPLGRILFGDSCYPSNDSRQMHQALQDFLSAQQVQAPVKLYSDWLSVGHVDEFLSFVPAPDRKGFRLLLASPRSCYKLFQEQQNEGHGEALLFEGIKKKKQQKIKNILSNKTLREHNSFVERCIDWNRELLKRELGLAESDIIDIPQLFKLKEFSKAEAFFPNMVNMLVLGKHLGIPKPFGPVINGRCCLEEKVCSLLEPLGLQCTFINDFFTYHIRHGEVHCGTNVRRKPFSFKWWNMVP
row,SMILES,IC50
1,"COc1cc(C(=O)N2C[C@H]3CC[C@@H]2[C@@H]3N)cc2nc(-c3cc4cccc(Br)c4n3CC3CC3(F)F)n(C)c12 (stereo partly drawn) [Example 146, ((1R,4R,7R)-7-amino-2-azabicyclo[2.2.1]heptan-2-yl)(2-(7-bromo-1-((2,2-difluorocyclopropyl)meth-yl)-1H-indol-2-yl)-7-methoxy-1-methyl-1H-benzo[d]imidazol-5-yl)methanone]",0.052 µM
2,"COc1cc(C(=O)N2C[C@H]3CC[C@@H]2[C@@H]3N)cc2nc(-c3cc4cccc(C)c4n3CC3CC3)n(C)c12 [Example 147, ((1R,4R,7R)-7-amino-2-azabicyclo[2.2.1]heptan-2-yl)(2-(1-(cyclopropylmethyl)-7-methyl-1H-indol-2-yl)-7-methoxy-1-methyl-1H-benzo[d]imidazol-5-yl)methanone]",0.079 µM
3,"COc1cc(C(=O)N2C[C@H]3CC[C@@H]2[C@@H]3N)cc2nc(-c3cc4cccc(OC)c4n3CC3CC3)n(C)c12 [Example 148, ((1R,4R,7R)-7-amino-2-azabicyclo[2.2.1]heptan-2-yl)(2-(1-(cyclopropylmethyl)-7-methoxy-1H-indol-2-yl)-7-methoxy-1-methyl-1H-benzo[d]imidazol-5-yl)methanone]",0.061 µM
4,"COc1cc(C(=O)N2C[C@H]3CC[C@@H]2[C@@H]3N)cc2nc(-c3cc4cccc(-c5cnc(C#N)nc5)c4n3CC3CC3(F)F)n(C)c12 (stereo partly drawn) [Example 149, 5-(2-(5-((1R,4R,7R)-7-amino-2-azabicyclo[2.2.1]heptane-2-carbonyl)-7-methoxy-1-methyl-1H-benzo[d]imidazol-2-yl)-1-((2,2-difluorocyclopropyl)meth-yl)-1H-indol-7-yl)pyrimidine-2-carbonitrile]",0.168 µM
5,"COc1cc(C(=O)N2C[C@H]3CC[C@@H]2[C@@H]3N)cc2nc(-c3cc4cccc(-c5cn[nH]c5)c4n3CC3CC3(F)F)n(C)c12 (stereo partly drawn) [Example 150, ((1R,4R,7R)-7-amino-2-azabicyclo[2.2.1]heptan-2-yl)(2-(1-((2,2-difluorocyclopropyl)meth-yl)-7-(1H-pyrazol-4-yl)-1H-indol-2-yl)-7-methoxy-1-methyl-1H-benzo[d]imidazol-5-yl)methanone]",0.046 µM
6,"COc1cc(C(=O)N2C[C@H]3CC[C@@H]2[C@@H]3N)cc2nc(-c3cc4cccc(-c5cn[nH]c5)c4n3CC3CC3(Cl)Cl)n(C)c12 (stereo partly drawn) [Example 151, ((1R,4R,7R)-7-amino-2-azabicyclo[2.2.1]heptan-2-yl)(2-(1-((2,2-dichlorocyclopropyl)meth-yl)-7-(1H-pyrazol-4-yl)-1H-indol-2-yl)-7-methoxy-1-methyl-1H-benzo[d]imidazol-5-yl)methanone]",0.104 µM
7,"COc1cc(C(=O)N2C[C@H]3CC[C@@H]2[C@@H]3N)cc2nc(-c3cc4cccc(-c5cc[nH]n5)c4n3CC3CC3(Cl)Cl)n(C)c12 (stereo partly drawn) [Example 152, ((1R,4R,7R)-7-amino-2-azabicyclo[2.2.1]heptan-2-yl)(2-(1-((2,2-dichlorocyclopropyl)meth-yl)-7-(1H-pyrazol-3-yl)-1H-indol-2-yl)-7-methoxy-1-methyl-1H-benzo[d]imidazol-5-yl)methanone]",0.127 µM
8,"COc1cc(C(=O)N2C[C@H]3CC[C@@H]2[C@@H]3N)cc2nc(-c3cc4cc(C)cc(-c5cn[nH]c5)c4n3CC3CC3)n(C)c12 [Example 154, ((1R,4R,7R)-7-amino-2-azabicyclo[2.2.1]heptan-2-yl)(2-(1-(cyclopropylmethyl)-5-methyl-7-(1H-pyrazol-4-yl)-1H-indol-2-yl)-7-methoxy-1-methyl-1H-benzo[d]imidazol-5-yl)methanone]",0.043 µM
9,"COc1cc(C(=O)N2C[C@H]3CC[C@@H]2[C@@H]3N)cc2nc(-c3cc4cccc(-c5ccccc5C#N)c4n3CC3CC3C)n(C)c12 (stereo partly drawn) [Example 155, 2-(2-(5-((1R,4R,7R)-7-amino-2-azabicyclo[2.2.1]heptane-2-carbonyl)-7-methoxy-1-methyl-1H-benzo[d]imidazol-2-yl)-1-((2-methylcyclopropyl)meth-yl)-1H-indol-7-yl)benzonitrile]",0.171 µM
10,"COc1cc(C(=O)N2C[C@H]3CC[C@@H]2[C@@H]3N)cc2nc(-c3cc4cccc(-c5cn[nH]c5)c4n3CC3CC3C)n(C)c12 (stereo partly drawn) [Example 156, ((1R,4R,7R)-7-amino-2-azabicyclo[2.2.1]heptan-2-yl)(7-methoxy-1-methyl-2-(1-((2-methylcyclopropyl)meth-yl)-7-(1H-pyrazol-4-yl)-1H-indol-2-yl)-1H-benzo[d]imidazol-5-yl)methanone]",0.079 µM
11,"COc1cc(C(=O)N2C[C@H]3CC[C@@H]2[C@@H]3N)cc2nc(-c3cc4cccc(-c5cc[nH]n5)c4n3CC3CC3C)n(C)c12 (stereo partly drawn) [Example 157, ((1R,4R,7R)-7-amino-2-azabicyclo[2.2.1]heptan-2-yl)(7-methoxy-1-methyl-2-(1-((2-methylcyclopropyl)meth-yl)-7-(1H-pyrazol-3-yl)-1H-indol-2-yl)-1H-benzo[d]imidazol-5-yl)methanone]",0.08 µM
12,"COc1cc(C(=O)N2CC3CCC2C3N)cc2nc(-c3cc4cccc(NCC5CNC5)c4n3CC3CC3)n(C)c12 (stereo not shown) [Example 159, (7-amino-2-azabicyclo[2.2.1]heptan-2-yl)(2-(7-((azetidin-3-ylmethyl)amino)-1-(cyclopropylmethyl)-1H-indol-2-yl)-7-methoxy-1-methyl-1H-benzo[d]imidazol-5-yl)methanone]",0.15 µM
13,"COc1cc(C(=O)N2CC3CCC2[C@@H]3N)cc2nc(-c3cc4cccc(Nc5ccnc(C(N)=O)n5)c4n3CC3CC3)n(C)c12 (stereo partly drawn) [Example 160, 4-((2-(5-((7R)-7-amino-2-azabicyclo[2.2.1]heptane-2-carbonyl)-7-methoxy-1-methyl-1H-benzo[d]imidazol-2-yl)-1-(cyclopropylmethyl)-1H-indol-7-yl)amino)pyrimidine-2-carboxamide]",0.11 µM
14,"COc1cc(C(=O)N2CC3CCC2[C@@H]3N)cc2nc(-c3cc4cccc(Nc5cc(C)nc(C)c5)c4n3CC3CC3)n(C)c12 (stereo partly drawn) [Example 161, ((7R)-7-amino-2-azabicyclo[2.2.1]heptan-2-yl)(2-(1-(cyclopropylmethyl)-7-((2,6-dimethylpyridin-4-yl)amino)-1H-indol-2-yl)-7-methoxy-1-methyl-1H-benzo[d]imidazol-5-yl)methanone]",0.103 µM
15,"CCOC(=O)c1ccc(Nc2cccc3cc(-c4nc5cc(C(=O)N6CC7CCC6[C@@H]7N)cc(OC)c5n4C)n(CC4CC4)c23)cc1 (stereo partly drawn) [Example 162, ethyl 4-((2-(5-((7R)-7-amino-2-azabicyclo[2.2.1]heptane-2-carbonyl)-7-methoxy-1-methyl-1H-benzo[d]imidazol-2-yl)-1-(cyclopropylmethyl)-1H-indol-7-yl)amino)benzoate]",0.098 µM
16,"COc1cc(C(=O)N2CC3CCC2[C@@H]3N)cc2nc(-c3cc4cccc(Nc5ccnc(C)c5)c4n3CC3CC3)n(C)c12 (stereo partly drawn) [Example 163, ((7R)-7-amino-2-azabicyclo[2.2.1]heptan-2-yl)(2-(1-(cyclopropylmethyl)-7-((2-methylpyridin-4-yl)amino)-1H-indol-2-yl)-7-methoxy-1-methyl-1H-benzo[d]imidazol-5-yl)methanone]",0.058 µM
17,"COc1cc(C(=O)N2CC3CCC2[C@@H]3N)cc2nc(-c3cc4cccc(Nc5ccc(CO)cc5)c4n3CC3CC3)n(C)c12 (stereo partly drawn) [Example 164, ((7R)-7-amino-2-azabicyclo[2.2.1]heptan-2-yl)(2-(1-(cyclopropylmethyl)-7-((4-(hydroxymethyl)phenyl)a-mino)-1H-indol-2-yl)-7-methoxy-1-methyl-1H-benzo[d]imidazol-5-yl)methanone]",0.153 µM
18,"COc1cc(C(=O)N2C[C@H]3CC[C@@H]2[C@@H]3N)cc2nc(-c3cc4cccc(Nc5cnn(CC(F)(F)F)c5)c4n3CC3CC3)n(C)c12 [Example 165, ((1R,4R,7R)-7-amino-2-azabicyclo[2.2.1]heptan-2-yl)(2-(1-(cyclopropylmethyl)-7-((1-(2,2,2-trifluoroethyl)-1H-pyrazol-4-yl)amino)-1H-indol-2-yl)-7-methoxy-1-methyl-1H-benzo[d]imidazol-5-yl)methanone]",0.075 µM
19,"COc1cc(C(=O)N2CC3CCC2C3N)cc2nc(-c3cc4cccc(Nc5ccccc5P(C)(C)=O)c4n3CC3CC3)n(C)c12 (stereo not shown) [Example 166, (7-amino-2-azabicyclo[2.2.1]heptan-2-yl)(2-(1-(cyclopropylmethyl)-7-((2-(dimethylphosphoryl)phe-nyl)amino)-1H-indol-2-yl)-7-methoxy-1-methyl-1H-benzo[d]imidazol-5-yl)methanone]",0.171 µM
20,"COc1cc(C(=O)N2CC3CCC2C3N)cc2nc(-c3cc4cccc(Nc5cnc(C#N)nc5)c4n3CC3CC3)n(C)c12 (stereo not shown) [Example 167, 5-((2-(4-(7-amino-2-azabicyclo[2.2.1]heptane-2-carbonyl)-7-methoxy-1-methyl-1H-benzo[d]imidazol-2-yl)-1-(cyclopropyllmethyl)-1H-indol-7-yl)amino)pyrimidine-2-carbonitrile]",0.138 µM

# Same assay, conditions: human PAD4, rapid-fire mass spectrum (RFMS) assay; 5 nM hPAD4, 250 μM BAEE; read-out: hPAD4 RFMS IC50
row,SMILES,IC50
1,"COc1cc(C(=O)N2C[C@H]3CC[C@@H]2[C@@H]3N)cc2nc(-c3cc4cc(C)ccc4n3CC3CC3)n(C)c12 [Example 153, ((1R,4R,7R)-7-amino-2-azabicyclo[2.2.1]heptan-2-yl)(2-(1-(cyclopropylmethyl)-5-methyl-1H-indol-2-yl)-7-methoxy-1-methyl-1H-benzo[d]imidazol-5-yl)methanone]",0.135 µM
2,"COc1cc(C(=O)N2C[C@H]3CC[C@@H]2[C@@H]3N)cc2nc(-c3cc4cccc(NC5CCNCC5)c4n3CC3CC3)n(C)c12 [Example 158, ((1R,4R,7R)-7-amino-2-azabicyclo[2.2.1]heptan-2-yl)(2-(1-(cyclopropylmethyl)-7-(piperidin-4-ylamino)-1H-indol-2-yl)-7-methoxy-1-methyl-1H-benzo[d]imidazol-5-yl)methanone]",0.069 µM
